Like-named read-outs stand apart in the source and are kept apart here.
Legend:
[1] = test system: RAW264.7 cells; test: LPS-induced RAW264.7 cell inflammation model (TNF-α, NO, IL-6 in supernatant); assay type: cell-based
Protocol: RAW264.7 cells were bought from Guangzhou Huatuo Biological Technology Co., Ltd. (Guangzhou, China). RAW264.7 cells (1 × 10^5 cells/mL) were inoculated in 24-well plates. After 24 h, LPS (1 μg/mL) was added to induce cell inflammation. Subsequently, curcumin (100 μM), fenofibric acid (FA, 100 μM), or 3d (10, 20, 40 80 μM) was added for 24 h. The cell supernatant was collected for analysis of inflammatory factors, including nitric oxide (NO), interleukin-6 (IL-6), and tumor necrosis factor (TNF-α).

[2] = test system: L02 cells; test: Apoptosis test (Annexin V/PI, flow cytometry) in FFA-treated L02 cells; assay type: cell-based, human; conditions: after FFA treatment
Protocol: (§1) L02 cells were inoculated in 6-well plates at 1 × 10^5 cells/mL, and after completing the lipid-accumulating cell modeling treatment according to the method described in 2.1, the cells were collected and washed with 1× PBS buffer.
Apoptosis test: Binding Buffer was used to resuspend the modeling-treated cells, cells were stained with Annexin V/PI, and apoptosis was determined using flow cytometry.

[3] = test system: L02 cells; test: Mitochondrial membrane potential test (JC-1) in FFA-treated L02 cells; assay type: cell-based, human; conditions: FFA-induced depolarization; 3d 20 μM
Protocol: as §1
Mitochondrial membrane potential (MMP) test: After the cells were co-incubated with FFAs and drugs for 24 h, the remaining medium was discarded and the cells were washed with 1× PBS buffer before being treated with JC-1 probe dye. A laser confocal microscope was used to take photographs, which were quantitatively analyzed using ImageJ software (V. 1.52a, Wayne Rasband National Institutes of Health, Bethesda, MD, USA).

[4] = test system: PPAR signaling pathway and p38 MAPK pathway proteins; test: Proteomics and Western blotting of liver tissue of HFD mice (PPAR pathway, p38 MAPK and apoptosis proteins); assay type: in vivo
Protocol: (§2) Proteome sequencing of liver tissue samples was performed according to the specific requirements of the protocol by Beijing Qinglian Baiao Biotechnology Co., Ltd. (Beijing, China). Mouse fecal samples were collected and frozen in liquid nitrogen and stored at −80 °C.
Proteins were extracted using RIPA lysate and a BCA kit for protein concentration, separated by SDS-PAGE gel electrophoresis, and transferred to PVDF membranes. The membranes were sealed with 5% skimmed milk and incubated at 4 °C overnight with primary antibodies, followed by co-incubation with the corresponding secondary antibodies. The protein bands were imaged using an infrared laser imager and quantitatively analyzed by ImageJ software. The antibodies used for Western blot were Acox1 (Abcam, ab184032), Acaa1 (Abcam, ab154091), EHHADH (Abcam, ab123490), PPARγ (Abcam, ab272718), PPARα (Abcam, ab314112), PPARδ (Abcam, ab178866), P38 (Abcam, ab31828), p-P38 (Abcam, ab195049), Bcl-2 (Abcam, ab182858), Caspase8 (Abcam, ab25901), anti-rabbit IgG (CST, 7074 S), and α-tubulin (Abcam, ab7291).

[5] = test system: gut microbiota; test: Gut microbiota composition by 16S rRNA sequencing in MASH mice; assay type: in vivo
Protocol: as §2
Total DNA was extracted by QIAamp DNA Stool Mini Kit, homogenized by lysis buffer, digested by proteinase, and purified by a centrifugal column and then passed through NanoDrop and agarose gel electrophoresis for quality control. PCR amplification was performed with primers specific to the V3-V4 region of the bacterial 16S rRNA gene (341F: 5′-CCTAYGGGRBGCASCAG-3′; 806R: 5′-[…]-3′), and the reaction system consisted of 2 × Taq PCR Master Mix, and the program was 95 °C pre-denaturation for […] (95 °C for 30 s, 55 °C for 30 s, 72 °C for 45 s) and extension at 72 °C for 10 min. After purification, bipartite sequencing was performed using the Illumina MiSeq PE300 platform. After QIIME2 quality control, the raw data were clustered into OTUs with 97% similarity, and the species were annotated based on the Silva database to analyze the Alpha/Beta diversity and differential flora.

[6] = Pharmacokinetics of 3d in male SD rats, gavage; assay type: in vivo; conditions: for MRT last: read-out: MRT(0-t) (converted)
Protocol: The pharmacokinetics of 3d in vivo were evaluated using male SD rats. Following a 12 h fast, the rats were administered 3d (30 mg/kg) via gavage or tail vein injection, respectively, and blood samples were collected within 24 h for analysis of 3d blood concentration via HPLC. The PK parameters were calculated using the DAS 3.0, and oral bioavailability (F) was obtained by the following formula.F = AUCpo × Di.v/AUCi.v × Dpo × 100%(1)

[7] = LPSs-induced, RAW264.7 macrophages, p < 0.01
[8] = HFD mice liver, Western blot, Figure 7A
[9] = male, SD, rat, blood, po, 30 mg/kg, rats, administered orally

AUC(0-t) ([6]; SD rats, gavage, 30 mg/kg): 30,236 ng/L*min | AUC(0-∞) ([6]; SD rats, gavage, 30 mg/kg): 34,864 ng/L*min | AUMC(0-t) ([6]; SD rats, gavage, 30 mg/kg): 7,351,242 | AUMC(0-∞) ([6]; SD rats, gavage, 30 mg/kg): 12,023,223 | Cmax ([6]; SD rats, gavage, 30 mg/kg): 0.113 ng/mL | Cz ([6]; SD rats, gavage, 30 mg/kg): 15 ng/L | Tmax ([6]; SD rats, gavage, 30 mg/kg): 2 h | VRT(0-t) ([6]; SD rats, gavage, 30 mg/kg): 31,533 min^2 | VRT(0-∞) ([6]; SD rats, gavage, 30 mg/kg): 107,286 min^2 | Zeta ([6]; SD rats, gavage, 30 mg/kg): 0.003 min⁻¹ | Cmax ([6]; male, SD, rat, blood, po, 30 mg/kg, SD rats, gavage, 30 mg/kg, read-out: Cmax): 0.113 ng/mL | MRT last ([6]; male, SD, rat, blood, po, 30 mg/kg, SD rats, gavage, 30 mg/kg): 4.05 h | half-life [6, 9]: 3.4 h | MRT last [6, 9]: 4 h | Tmax ([6]; male, SD, rat, blood, po, 30 mg/kg, rats, administered orally, read-out: time of peak concentration): 2 h | bioavailability ([6]; male, SD, rat, blood, po, rats, 30 mg/kg gavage vs tail vein injection, read-out: oral bioavailability (F)): 27.9% | MRT inf ([6]; male, rat, blood, po, SD rats, gavage, 30 mg/kg, read-out: MRT(0-∞) (converted)): 5.73 h
Structure (SMILES): CNc1ccc(C(=O)/C=C/c2cc(C)c(OC(C)(C)C(=O)OC(C)(C)C)c(C)c2)cc1 [3d]
levels of each inflammatory factor (TNF-α, NO, IL-6) ([1]; LPS 1 μg/mL, 3d 10, 20, 40, 80 μM, 24 h): significantly reduced | IL-6 reduction [1, 7]: 48% | NO decrease [1, 7]: 51% | TNF-α reduction [1, 7]: 63% | apoptosis [2]: decrease to near-normal levels | mitochondrial membrane potential [3]: partially restored | activation of caspase 8 [4, 8]: reversed the activation | expression of the anti-apoptotic protein Bcl-2 [4, 8]: significantly up-regulated | degree of P38 phosphorylation ([4]; HFD mice liver, Western blot, Figure 7B): significantly reduced | upregulation of Acox1, EHHADH, Acaa1 ([4]; HFD mice liver, p < 0.001): 2.3–3.1 fold | decrease in caspase-8 ([4]; HFD mice liver, p < 0.01): 61% | increase in Bcl-2 ([4]; HFD mice liver, p < 0.01): 1.8 fold | reduction in p-p38 ([4]; HFD mice liver, p < 0.01): 54% | PPAR-related proteins (PPAR α, γ, δ, Acox1, EHHADH, Acaa1) in liver tissues ([4]; HFD mice, Western blot, Figure 6B): decreasing trend of PPAR-related proteins was significantly reversed | Bifidobacterium rise [5]: 1.9 fold | Lactobacillus increase [5]: 2.7 fold | Proteobacteria decrease ([5]; p < 0.05): 68% | abundance of Firmicutes and Actinobacteria ([5]; phylum level): significantly increased | abundance of Proteobacteria and Deferribacteres ([5]; phylum level): significantly reduced and returned to normal levels | Shannon index ([5]; α-diversity): decreased | Simpson index ([5]; α-diversity): increased | community richness, Chao1 and ACE indices ([5]; α-diversity): no significant effect
